Our source for the Aexp and MIC values is article PMC8911025, “Design, Synthesis, and Biological Evaluation of New Azulene-Containing Chalcones” (Materials, 2022).

Assay [1] has as its system S. aureus. The assay can be described thus: Known antibacterial activity of literature chalcones used for QSAR. Format: cell-based, Staphylococcus aureus. Particulars: Aexp = 0.1 + log (k/MIC), k = 1.250. How it is done: The QSAR studies were carried out on 48 chalcones, including 10 synthesized azulenyl-chalcones, in order to identify the physicochemical parameter responsible for their antimicrobial activity against Staphylococcus aureus. The geometry optimization of the molecules was completed using PCModel and MOPAC programs. The descriptors were calculated using MOPAC, PRECLAV, and DRAGON software, and the descriptors and QSAR equations were selected using the PRECLAV algorithm. The best QSAR model was chosen based on the statistical parameters such as the square of the correlation coefficient (r^2), the Fischer’s value of significance (F), and the standard error of estimate(s).
Quantitative structure−activity relationship (QSAR) studies involving 38 chalcone derivatives (Table 7) with known antibacterial activity against S. aureus were developed. These studies were based upon observed activity and molecular descriptors. […] Two QSAR studies were performed: (i) one in which all 48 molecules were included in the calibration set and (ii) another with an external validation test. For the latter, 10 molecules were randomly chosen to be part of the validation test, whereas the rest were part of the calibration set. The result of the external validation depends strongly, among other things, on the procedures for the extraction of the calibration and validation sets from the initial database.

Assay [2] deals with S. aureus. Details: method as in PMID 15801857, PMID 19275612, PMID 15142563. The settings on record: literature chalcones Nr. Crtl. 1-38 of Table 7; cited from earlier work.

≈ marks a conversion by molar mass, not a printed value.

Usually MIC stands for the lowest concentration that inhibits growth of the organism. In the case of `O=C(/C=C/c1cc(C(F)(F)F)cc(C(F)(F)F)c1)c1ccc(O)cc1` [Nr. Crtl. 36], the Aexp in the assay with S. aureus [1] worked out at 2.720. The minimal inhibitory concentration (MIC) in the assay with S. aureus [2] was 3 µg/mL (≈ 8.33 µM).
Turning to `O=C(/C=C/c1cccc(O)c1)c1ccc(Cl)cc1` [Nr. Crtl. 20], in the assay with S. aureus [1], the Aexp worked out at 1.100. Also, the MIC in the assay on S. aureus [2] is 125 µg/mL (≈ 483 µM).
In the case of `O=C(O)c1ccc(C(=O)/C=C/c2cc(F)cc(F)c2)cc1` [Nr. Crtl. 15], the Aexp in the assay with S. aureus [1] worked out at 1.021. Besides, in the assay with S. aureus [2], the MIC is 150 µg/mL (≈ 520 µM).
Consider `O=C(/C=C/c1ccc(Cl)cc1Cl)c1ccc(O)c(F)c1` [Nr. Crtl. 3], for which the Aexp with S. aureus [1] is given as 0.720. Besides, the MIC with S. aureus [2] is 300 µg/mL (≈ 964 µM).
For the compound `COc1cccc(/C=C/C(=O)c2ccc(Cl)cc2)c1O` [Nr. Crtl. 8], the Aexp in the assay with S. aureus [1] amounted to 0.799. Further, in the assay on S. aureus [2], the minimal inhibitory concentration (MIC) was 250 µg/mL (≈ 866 µM).
As to `O=C(O)c1ccc(C(=O)/C=C/c2cccc(C(F)(F)F)c2)cc1` [Nr. Crtl. 28], the Aexp with S. aureus [1] was 1.595. Besides, in the assay on S. aureus [2], the MIC was 40 µg/mL (≈ 125 µM).
As to `COc1cccc(/C=C/C(=O)c2ccccc2)c1O` [Nr. Crtl. 18], in the assay with S. aureus [1], the Aexp is recorded as 1.100. Also, in the assay with S. aureus [2], the minimal inhibitory concentration (MIC) was 125 µg/mL (≈ 492 µM).
`COc1cc(/C=C/C(=O)c2ccc(Cl)cc2)cc(OC)c1O` [Nr. Crtl. 2]: the Aexp in the assay with S. aureus [1] stood at 0.498. In addition, in the assay with S. aureus [2], the MIC is 500 µg/mL (≈ 1570 µM).
`O=C(/C=C/c1cccc(Br)c1)c1ccc(O)cc1` [Nr. Crtl. 33]: the Aexp in the assay with S. aureus [1] turned out to be 1.896. The MIC in the assay with S. aureus [2] is 20 µg/mL (≈ 66 µM).
Turning to `COc1cc(/C=C/C(=O)c2ccccc2)ccc1O` [Nr. Crtl. 1], the Aexp in the assay with S. aureus [1] is listed as 0.498. In addition, in the assay with S. aureus [2], the minimum inhibitory concentration (MIC) was 500 µg/mL (≈ 1970 µM).
With `O=C(O)c1ccc(C(=O)/C=C/c2cccc(Cl)c2)cc1` [Nr. Crtl. 23], in the assay on S. aureus [1], the Aexp turned out to be 1.322. Also, the MIC in the assay with S. aureus [2] is 75 µg/mL (≈ 262 µM).
`COc1cc(/C=C/C(=O)c2ccc(Cl)cc2)ccc1O` [Nr. Crtl. 9]: the Aexp with S. aureus [1] was 0.799. Moreover, in the assay on S. aureus [2], the MIC was 250 µg/mL (≈ 866 µM).
`O=C(O)c1ccc(C(=O)/C=C/c2ccccc2Cl)cc1` [Nr. Crtl. 13]: the Aexp with S. aureus [1] turned out to be 1.021. In addition, the MIC in the assay on S. aureus [2] was 150 µg/mL (≈ 523 µM).
Regarding `O=C(/C=C/c1ccc(Cl)cc1Cl)c1cc(F)c(O)c(F)c1` [Nr. Crtl. 10], the Aexp with S. aureus [1] was 1.021. Besides, the MIC in the assay on S. aureus [2] is 150 µg/mL (≈ 456 µM).
With `O=C(/C=C/c1ccc(O)c(O)c1)c1ccc(Cl)cc1` [Nr. Crtl. 22], in the assay with S. aureus [1], the Aexp was 1.100. Besides, the MIC with S. aureus [2] is 125 µg/mL (≈ 455 µM).
With `O=C(O)c1ccc(C(=O)/C=C/c2cc(C(F)(F)F)cc(C(F)(F)F)c2)cc1` [Nr. Crtl. 37], in the assay with S. aureus [1], the Aexp is recorded as 2.896. The minimal inhibitory concentration (MIC) with S. aureus [2] was 2 µg/mL (≈ 5.15 µM).
As to `O=C(/C=C/c1ccccc1O)c1ccc(Cl)cc1` [Nr. Crtl. 19], the Aexp in the assay on S. aureus [1] was found to be 1.100. The MIC in the assay on S. aureus [2] is 125 µg/mL (≈ 483 µM).
For `O=C(/C=C/c1c(Cl)ccc(Cl)c1Cl)c1ccc(O)cc1` [Nr. Crtl. 35], the Aexp in the assay with S. aureus [1] came out at 2.197. Further, in the assay on S. aureus [2], the MIC was 10 µg/mL (≈ 30.5 µM).
As to `O=C(/C=C/c1ccc(O)cc1)c1ccccc1` [Nr. Crtl. 16], in the assay with S. aureus [1], the Aexp came out at 1.100. In addition, the MIC in the assay with S. aureus [2] was 125 µg/mL (≈ 557 µM).
On to `O=C(/C=C/c1ccc(Cl)cc1Cl)c1ccc(O)cc1` [Nr. Crtl. 31], for which the Aexp with S. aureus [1] came out at 1.896. For the same compound, in the assay with S. aureus [2], the minimal inhibitory concentration (MIC) is 20 µg/mL (≈ 68.2 µM).
Regarding `O=C(O)c1ccc(C(=O)/C=C/c2ccc(Cl)cc2)cc1` [Nr. Crtl. 12], the Aexp in the assay with S. aureus [1] is 1.021. Besides, the MIC with S. aureus [2] is 150 µg/mL (≈ 523 µM).
`O=C(O)c1ccc(C(=O)/C=C/c2cccc(Br)c2)cc1` [Nr. Crtl. 24]: the Aexp in the assay on S. aureus [1] is listed as 1.322. In addition, the MIC in the assay on S. aureus [2] is 75 µg/mL (≈ 226 µM).
Regarding `O=C(O)c1ccc(C(=O)/C=C/c2cccc([N+](=O)[O-])c2)cc1` [Nr. Crtl. 5], the Aexp in the assay with S. aureus [1] is reported as 0.720. Also, the minimum inhibitory concentration (MIC) in the assay with S. aureus [2] was 300 µg/mL (≈ 1010 µM).
`O=C(/C=C/c1ccc(Cl)cc1Cl)c1ccc(O)cc1F` [Nr. Crtl. 32]: the Aexp in the assay on S. aureus [1] is reported as 1.896. The MIC in the assay on S. aureus [2] is 20 µg/mL (≈ 64.3 µM).
